This note sets out measurements from patent US20140005163A1 (NOVARTIS AG, priority 2010, published 2014).

The structures appear in SMILES notation.

Assay [1] has as its system S6 Ribosomal Protein phosphorylation Ser235/236 in TSC1 null mouse embryo fibroblast (MEF) cells. Kind of assay: Reverse protein array assay, S6 Ribosomal Protein phosphorylation Ser235/236 in TSC1 null MEF cells. The assay is classed as cell-based. Conditions: 1 h, pS6 ribosomal protein Ser235/236, 60 minutes incubation, read-out: p-S6 IC50. The method in brief:
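TSC1−/− MEFs, seeded and held ≥20 h at 37 °C/5% CO2, were exposed to 8-step serial compound dilutions (0.02% DMSO final; DMSO vehicle control) for 60 min at 37 °C. Cells were then lysed on ice for 10 min and lysates spotted onto reverse protein array chips.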

A further assay deals with T1, mTOR (Homo sapiens, UniProt P42345).
T1 construct: purchased Invitrogen Corporation (Carlsbad/CA, USA) PV4753
T1 sequence (P42345 1360-2549 limits assumed): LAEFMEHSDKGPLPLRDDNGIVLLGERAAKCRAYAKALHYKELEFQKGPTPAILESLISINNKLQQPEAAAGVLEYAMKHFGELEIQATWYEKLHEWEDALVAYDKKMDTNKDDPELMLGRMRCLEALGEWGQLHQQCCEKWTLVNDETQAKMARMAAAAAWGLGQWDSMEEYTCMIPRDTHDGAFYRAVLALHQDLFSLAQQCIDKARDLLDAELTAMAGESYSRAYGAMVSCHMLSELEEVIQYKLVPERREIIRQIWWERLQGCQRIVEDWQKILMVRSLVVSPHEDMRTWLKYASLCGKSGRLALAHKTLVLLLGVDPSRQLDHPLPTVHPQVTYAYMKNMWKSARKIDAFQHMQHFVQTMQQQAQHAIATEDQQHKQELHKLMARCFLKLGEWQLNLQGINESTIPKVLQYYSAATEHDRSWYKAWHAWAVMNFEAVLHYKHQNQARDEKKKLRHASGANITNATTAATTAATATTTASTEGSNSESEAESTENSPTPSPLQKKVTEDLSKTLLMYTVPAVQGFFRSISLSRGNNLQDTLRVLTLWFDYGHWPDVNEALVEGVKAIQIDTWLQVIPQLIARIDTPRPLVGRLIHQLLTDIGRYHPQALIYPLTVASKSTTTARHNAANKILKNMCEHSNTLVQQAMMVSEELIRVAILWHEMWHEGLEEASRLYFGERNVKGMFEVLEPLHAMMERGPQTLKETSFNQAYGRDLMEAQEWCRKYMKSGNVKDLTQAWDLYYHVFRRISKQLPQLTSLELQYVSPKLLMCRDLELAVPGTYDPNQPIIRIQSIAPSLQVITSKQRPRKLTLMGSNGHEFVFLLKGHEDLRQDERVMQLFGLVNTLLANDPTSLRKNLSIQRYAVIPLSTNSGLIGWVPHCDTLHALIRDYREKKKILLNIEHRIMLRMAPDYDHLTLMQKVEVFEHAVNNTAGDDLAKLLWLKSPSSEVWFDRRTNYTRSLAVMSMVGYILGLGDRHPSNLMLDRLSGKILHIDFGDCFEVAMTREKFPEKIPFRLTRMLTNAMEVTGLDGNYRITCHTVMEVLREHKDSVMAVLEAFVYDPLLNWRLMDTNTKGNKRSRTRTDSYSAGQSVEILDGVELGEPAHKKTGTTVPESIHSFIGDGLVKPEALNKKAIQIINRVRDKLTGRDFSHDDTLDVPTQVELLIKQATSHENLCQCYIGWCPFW
Kind of assay: Biochemical assay for m-TOR by TR-FRET. Conditions: 8 μM ATP, 400 nM GFP-4EBP1, 0.5 nM mTOR. The gist of the method: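 Enzyme 0.5 nM, GFP-4EBP1 400 nM, ATP 8 μM (all final); 50 mM HEPES pH 7.5, 10 mM MnCl2, 1 mM DTT; rt. Detection: Tb-α-p4EBP1 [pT46] 0.5 nM in EDTA, TR-FRET, 15 min. Reference compound on every plate, 16-point duplicate dilutions.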

The test system of assay [2] is PKB Ser473 phosphorylation in Rat1-myr-HA-p110 beta cells. Kind of assay: Reverse protein array assay, PKB Ser473 phosphorylation in Rat1-myr-p110 beta cells. As to conditions: 0.5 h, pAkt Ser473, 30 minutes incubation, read-out: p-PKB IC50. The assay is classed as cell-based. The gist of the method:
(§1)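 Compound exposure lasted 30 min in Rat1 cells bearing membrane-targeted HA-p110 isoforms, using 8 serial concentrations. Arrayed lysates, each spotted at four dilutions, gave relative fluorescence signals for phospho-Ser473 PKB.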

For assay [3], the system named is PKB Ser473 phosphorylation in Rat1-myr-HA-p110 alpha cells. Kind of assay: Reverse protein array assay, PKB Ser473 phosphorylation in Rat1-myr-p110 alpha cells. The assay is classed as cell-based. As to conditions: 0.5 h, pAkt Ser473, 30 minutes compound incubation, read-out: p-PKB IC50. The gist of the method:
as §1

Assay [4] has as its system PKB Ser473 phosphorylation in Rat1-myr-HA-p110 delta cells. Kind of assay: Reverse protein array assay, PKB Ser473 phosphorylation in Rat1-myr-p110 delta cells. Format: cell-based. As to conditions: read-out: p-PKB IC50. The method in brief: as §1

The IC50 is the midpoint of a concentration-inhibition curve. `COc1ncc(-c2ccc3ncc4c(c3c2)n(-c2cn(C)nc2C)c(=O)n4C)cc1N(C)C(C)=O` [Example 62, N-{5-[1-(1,3-Dimethyl-1H-pyrazol-4-yl)-3-methyl-2-oxo-2,3-dihydro-1H-imidazo[4,5-c]quinolin-8-yl]-2-methoxy-pyridin-3-yl}-N-methyl-acetamide]: the IC50 in assay [1] was 98 nM; on mTOR it was 642 nM; in assay [2] it was 516 nM; in assay [3] it was 469 nM; in assay [4] it was 276 nM.

With `[2H]C([2H])([2H])Nc1ncc(-c2ccc3ncc4c(c3c2)n(-c2c(C)nn(C)c2C)c(=O)n4C)cc1C(F)(F)F` [Example 143, 3-Methyl-8-(6-trideuteromethylamino-5-trifluoromethyl-pyridin-3-yl)-1-(1,3,5-trimethyl-1H-pyrazol-4-yl)-1,3-dihydro-imidazo[4,5-c]quinolin-2-one], the IC50 in assay [1] is 9 nM; on mTOR, 113 nM; in assay [2], 57 nM; in assay [3], 40 nM; in assay [4], 86 nM.

Turning to `Cc1nn(C)cc1-n1c(=O)n(C)c2cnc3ccc(-c4cnc(Cl)c(NS(C)(=O)=O)c4)cc3c21` [Example 223, N-{2-Chloro-5-[1-(1,3-dimethyl-1H-pyrazol-4-yl)-3-methyl-2-oxo-2,3-dihydro-1H-imidazo[4,5-c]quinolin-8-yl]-pyridin-3-yl}-methanesulfonamide], the IC50 was 35 nM in assay [1]; less than 3 nM at mTOR; 24 nM in assay [2]; 11 nM in assay [3]; 103 nM in assay [4].

For `CNc1ccc(-c2ccc3ncc4c(c3c2)n(-c2cn(C(C)C)nc2C)c(=O)n4C)cn1` [Example 118.1, 1-(1-isopropyl-3-methyl-1H-pyrazol-4-yl)-3-methyl-8-(6-methylamino-pyridin-3-yl)-1,3-dihydro-imidazo[4,5-c]quinolin-2-one], the IC50 in assay [1] turned out to be 5 nM; on mTOR, 5 nM; in assay [2] it was 14 nM; in assay [3] it was 8 nM; in assay [4], 12 nM.

In the case of `Cc1cc(-n2c(=O)n(C)c3cnc4ccc(-c5cncc(N6CCOCC6)c5)cc4c32)n(C)n1` [Example 175.2, 1-(2,5-Dimethyl-2H-pyrazol-3-yl)-3-methyl-8-(5-morpholin-4-yl-pyridin-3-yl)-1,3-dihydro-imidazo[4,5-c]quinolin-2-one], the IC50 in assay [1] turned out to be 32 nM; at mTOR, 155 nM; in assay [2], 161 nM; in assay [3] it was 59 nM; in assay [4] it was 360 nM.

For the molecule `Cc1nn(C)cc1-n1c(=O)n(C)c2cnc3ccc(-c4cncc(S(C)(=O)=O)c4)cc3c21` [Example 22, 1-(1,3-Dimethyl-1H-pyrazol-4-yl)-8-(5-methanesulfonyl-pyridin-3-yl)-3-methyl-1,3-dihydro-imidazo[4,5-c]quinolin-2-one], the IC50 in assay [1] was 27 nM; on mTOR, 121 nM; in assay [2], 148 nM; in assay [3], 168 nM; in assay [4], 297 nM.

For `CCN(CC)C(=O)Cn1cc(-n2c(=O)n(C)c3cnc4ccc(-c5cnc(N6CCCC6)nc5)cc4c32)c(C)n1` [Example 247.1, N,N-Diethyl-2-{3-methyl-4-[3-methyl-2-oxo-8-(2-pyrrolidin-1-yl-pyrimidin-5-yl)-2,3-dihydro-imidazo[4,5-c]quinolin-1-yl]-pyrazol-1-yl}-acetamide], the half-inhibitory concentration (IC50) in assay [1] is 3 nM; at mTOR it was 13 nM; in assay [2], 52 nM; in assay [3], 28 nM; in assay [4], 157 nM.

On to `COCCOc1cc(-c2ccc3ncc4c(c3c2)n(-c2cn(C)nc2C)c(=O)n4C)cnc1C` [Example 86.2, 1-(1,3-Dimethyl-1H-pyrazol-4-yl)-8-[5-(2-methoxy-ethoxy)-6-methyl-pyridin-3-yl]-3-methyl-1,3-dihydro-imidazo[4,5-c]quinolin-2-one], for which the IC50 in assay [1] is 5 nM; at mTOR it was 31 nM; in assay [2], 53 nM; in assay [3] it was 33 nM; in assay [4], 57 nM.

With `COc1ccc(-c2ccc3ncc4c(c3c2)n(-c2c(C)nn(C)c2C)c(=O)n4C)cc1OC` [Example 1.9, 8-(3,4-Dimethoxy-phenyl)-3-methyl-1-(1,3,5-trimethyl-1H-pyrazol-4-yl)-1,3-dihydro-imidazo[4,5-c]quinolin-2-one], the half-inhibitory concentration (IC50) in assay [1] turned out to be 44 nM; on mTOR, 308 nM; in assay [2], 113 nM; in assay [3], 26 nM; in assay [4] it was 140 nM.

For the molecule `Cc1nn(C)cc1-n1c(=O)n(C)c2cnc3ccc(-c4cnc(CO)c(Cl)c4)cc3c21` [Example 238, 8-(5-Chloro-6-hydroxymethyl-pyridin-3-yl)-1-(1,3-dimethyl-1H-pyrazol-4-yl)-3-methyl-1,3-dihydro-imidazo[4,5-c]quinolin-2-one], the IC50 in assay [1] was found to be 6 nM; on mTOR, 174 nM; in assay [2], 116 nM; in assay [3], 32 nM; in assay [4], 327 nM.

Take `COc1ncc(-c2ccc3ncc4c(c3c2)n(-c2cn(C)nc2Cl)c(=O)n4C)cc1CO` [Example 200, 1-(3-Chloro-1-methyl-1H-pyrazol-4-yl)-8-(5-hydroxymethyl-6-methoxy-pyridin-3-yl)-3-methyl-1,3-dihydro-imidazo[4,5-c]quinolin-2-one]: the IC50 in assay [1] was less than 0.5 nM; on mTOR, 3 nM; in assay [2] it was less than 5 nM; in assay [3] it was less than 5 nM; in assay [4], 7 nM.

As to `Cc1nn(CC(=O)N(C)C)c(C)c1-n1c(=O)n(C)c2cnc3ccc(-c4cnc(N)c(C(F)(F)F)c4)cc3c21` [Example 25.2, 2-{4-[8-(6-Amino-5-trifluoromethyl-pyridin-3-yl)-3-methyl-2-oxo-2,3-dihydro-imidazo[4,5-c]quinolin-1-yl]-3,5-dimethyl-pyrazol-1-yl}-N,N-dimethyl-acetamide], the IC50 in assay [1] turned out to be 6 nM; on mTOR, 152 nM; in assay [3], 90 nM; in assay [4], 247 nM.

For `COc1ccc(-c2ccc3ncc4c(c3c2)n(-c2ccnn2C)c(=O)n4C)cn1` [Example 2.2, 8-(6-Methoxy-pyridin-3-yl)-3-methyl-1-(2-methyl-2H-pyrazol-3-yl)-1,3-dihydro-imidazo[4,5-c]quinolin-2-one], the IC50 worked out at 347 nM on mTOR, 553 nM in assay [2], 159 nM in assay [3] and 541 nM in assay [4].

As for `COCCNC(=O)c1cc(-c2ccc3ncc4c(c3c2)n(-c2cn(C)nc2C)c(=O)n4C)cnc1N` [Example 226, 2-Amino-5-[1-(1,3-dimethyl-1H-pyrazol-4-yl)-3-methyl-2-oxo-2,3-dihydro-1H-imidazo[4,5-c]quinolin-8-yl]-N-(2-methoxy-ethyl)-nicotinamide], the IC50 in assay [1] is 7 nM; on mTOR it was 169 nM; in assay [2], 457 nM; in assay [4], 433 nM.

As for `Cc1nn(CC(=O)N(C)C)c(C)c1-n1c(=O)n(C)c2cnc3ccc(-c4ccc(-n5cccn5)cc4)cc3c21` [Example 51.4, 2-{3,5-Dimethyl-4-[3-methyl-2-oxo-8-(4-pyrazol-1-yl-phenyl)-2,3-dihydro-imidazo[4,5-c]quinolin-1-yl]pyrazol-1-yl}-N,N-dimethyl-acetamide], the IC50 in assay [1] was 11 nM; at mTOR, 99 nM; in assay [3], 14 nM; in assay [4], 223 nM.

`CCNc1cc(-c2ccc3ncc4c(c3c2)n(-c2cn(C)nc2C)c(=O)n4C)cnc1C` [Example 87.1, 1-(1,3-Dimethyl-1H-pyrazol-4-yl)-8-(5-ethylamino-6-methyl-pyridin-3-yl)-3-methyl-1,3-dihydro-imidazo[4,5-c]quinolin-2-one]: the IC50 is 3 nM at mTOR, less than 5 nM in assay [2], less than 5 nM in assay [3] and less than 5 nM in assay [4].

On to `CCn1cc(-n2c(=O)n(C)c3cnc4ccc(-c5cncc(NC)c5)cc4c32)c(C)n1` [Example 180.1, 1-(1-Ethyl-3-methyl-1H-pyrazol-4-yl)-3-methyl-8-(5-methylamino-pyridin-3-yl)-1,3-dihydro-imidazo[4,5-c]quinolin-2-one], for which the IC50 on mTOR is 5 nM; in assay [2], less than 5 nM; in assay [3] it was less than 5 nM; in assay [4], 41 nM.

On to `Cc1ncc(-c2ccc3ncc4c(c3c2)n(-c2cn(C)nc2C)c(=O)n4C)cc1N(C)S(C)(=O)=O` [Example 75, N-{5-[1-(1,3-Dimethyl-1H-pyrazol-4-yl)-3-methyl-2-oxo-2,3-dihydro-1H-imidazo[4,5-c]quinolin-8-yl]-2-methyl-pyridin-3-yl}-N-methyl-methanesulfonamide], for which the IC50 came to 260 nM on mTOR, 383 nM in assay [2], 206 nM in assay [3] and 177 nM in assay [4].
